Results reported in patent US20250163043A1 (TRANSTHERA SCIENCES (NANJING), INC., priority 2021, published 2025).

Columns and labels:
Format in all cases: biochemical
CDK5/p25NCK = CDK5/p25NCK (Homo sapiens, UniProt Q00535); experiment: ADP-Glo kinase assay on CDK enzymatic activity, CDK5/p25NCK; conditions: 10 concentrations from 10 μM, 4-fold, 60 min room temperature
Excerpt: (§1) Test samples: the compounds of the present invention, having structures shown above.
(§2) ADP-Glo Kinase Assay (ADP-Glo kinase kit), DMSO (dimethyl sulfoxide), CDK9/CycT1 (cyclin-dependent kinase 9/cyclin T1), CDK tide (cyclin-dependent kinase substrate peptide fragments), CDK1/CycE1 (cyclin-dependent kinase 1/cyclin E1), CDK2/CycA2 (cyclin-dependent kinase 2/cyclin A2), CDK3/CycE1 (cyclin-dependent kinase 3/cyclin E1), CDK4/CycD3 (cyclin-dependent kinase 4/cyclin D3), CDK5/p25NCK (cyclin-dependent kinase 5/p25), and AZD 4573.
(§3) A 384-well white plate, a 96-well plate, a microplate oscillator, a centrifuge, and a microplate reader.
(§4) The compounds were dissolved in DMSO and diluted 4-fold in the 96-well plate to obtain stock solutions with 10 concentration gradients, and added into a 384-well plate system to obtain a series of 10 concentration gradients of compound solutions with final concentrations of 10 μM starting and 4-fold gradient decreasing. 1 μM AZD4573 was used as compound positive control (PC) and 0.5% DMSO as solvent vehicle control (VC), ten duplicated wells each for PC and VC.
(§5) 1 μL of compound solution and 2 μL of 2× kinase solution were transferred to each well, and the plate was centrifuged at 1000 g for 30 s and left at room temperature for 10 min. A mixture of 2× substrate and ATP was prepared in 1× kinase buffer. The reaction was started after adding 2 μL of substrate and ATP into the plate. The plate was centrifuged at 1000 g for 30 s. The assay plate was closed and left at room temperature for 60 min. The reaction system was added with 4 μL of ADP Glo reagent, centrifuged at 1000 rpm for 1 min, and incubated at room temperature for 40 min. The reaction system was added with 8 μL of kinase assay reagent, centrifuged at 1000 rpm for 1 min and incubated at room temperature for 40 min. The […] was read on Biotek.
(§6) The inhibition rate was calculated according to the following formula: […]
(§7) Lumcmpd: compound fluorescence reading; Lumpositive: average value of the fluorescence reading of positive compound control; Lumvehicle: average value of the fluorescence reading of solvent vehicle control.
(§8) IC50 values were fitted using GraphPad 7.0 based on inhibition rates of compounds at different concentrations.

CDK2/CycA2 = CDK2/CycA2 (Homo sapiens, UniProt P24941); experiment: ADP-Glo kinase assay on CDK enzymatic activity, CDK2/CycA2; conditions: 10 concentrations from 10 μM, 4-fold, 60 min room temperature
Excerpt: as §1, §2, §3, §4, §5, §6, §7, §8

CDK3/CycE1 = CDK3/CycE1 (Homo sapiens, UniProt Q00526); experiment: ADP-Glo kinase assay on CDK enzymatic activity, CDK3/CycE1; conditions: 10 concentrations from 10 μM, 4-fold, 60 min room temperature
CDK3/CycE1, sequence (Q00526 whole entry, species assumed): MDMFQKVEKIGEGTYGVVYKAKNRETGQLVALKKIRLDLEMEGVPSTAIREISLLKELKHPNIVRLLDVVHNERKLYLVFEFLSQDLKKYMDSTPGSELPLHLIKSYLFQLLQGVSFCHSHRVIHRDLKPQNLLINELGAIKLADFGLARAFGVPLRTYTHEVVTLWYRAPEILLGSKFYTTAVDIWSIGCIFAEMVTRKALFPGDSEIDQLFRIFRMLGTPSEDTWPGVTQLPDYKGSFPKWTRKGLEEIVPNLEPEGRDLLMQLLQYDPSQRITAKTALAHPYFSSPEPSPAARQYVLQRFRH
CDK3/CycE1, sequence (P24864 whole entry partner, species assumed): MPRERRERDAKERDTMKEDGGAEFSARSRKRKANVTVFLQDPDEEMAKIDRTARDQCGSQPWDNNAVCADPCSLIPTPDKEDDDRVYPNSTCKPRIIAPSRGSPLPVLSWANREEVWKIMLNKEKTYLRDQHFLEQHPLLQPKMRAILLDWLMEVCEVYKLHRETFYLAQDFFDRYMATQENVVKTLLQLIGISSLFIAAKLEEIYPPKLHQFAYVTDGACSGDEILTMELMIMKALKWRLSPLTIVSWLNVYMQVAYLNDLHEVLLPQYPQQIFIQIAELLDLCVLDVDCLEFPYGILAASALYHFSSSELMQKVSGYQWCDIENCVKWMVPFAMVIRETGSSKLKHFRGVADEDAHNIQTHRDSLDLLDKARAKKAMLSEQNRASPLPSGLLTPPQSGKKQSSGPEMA
Excerpt: as §1, §2, §3, §4, §5, §6, §7, §8

CDK9/CycT1 = CDK9/CycT1 (Homo sapiens, UniProt P50750); experiment: ADP-Glo kinase assay on CDK enzymatic activity, CDK9/CycT1; conditions: 10 concentrations from 10 μM, 4-fold, 60 min room temperature
CDK9/CycT1, sequence (P50750 whole entry): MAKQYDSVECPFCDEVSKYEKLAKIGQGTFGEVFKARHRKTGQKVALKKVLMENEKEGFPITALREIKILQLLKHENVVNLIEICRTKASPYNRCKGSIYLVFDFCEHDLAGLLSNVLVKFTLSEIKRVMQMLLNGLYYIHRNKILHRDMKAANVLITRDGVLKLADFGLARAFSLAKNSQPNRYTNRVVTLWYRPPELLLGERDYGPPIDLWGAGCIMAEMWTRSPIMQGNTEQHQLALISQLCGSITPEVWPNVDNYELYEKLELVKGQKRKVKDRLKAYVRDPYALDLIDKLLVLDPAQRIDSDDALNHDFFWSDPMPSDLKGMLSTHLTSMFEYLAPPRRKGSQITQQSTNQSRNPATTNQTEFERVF
CDK9/CycT1, sequence (O60563 whole entry partner): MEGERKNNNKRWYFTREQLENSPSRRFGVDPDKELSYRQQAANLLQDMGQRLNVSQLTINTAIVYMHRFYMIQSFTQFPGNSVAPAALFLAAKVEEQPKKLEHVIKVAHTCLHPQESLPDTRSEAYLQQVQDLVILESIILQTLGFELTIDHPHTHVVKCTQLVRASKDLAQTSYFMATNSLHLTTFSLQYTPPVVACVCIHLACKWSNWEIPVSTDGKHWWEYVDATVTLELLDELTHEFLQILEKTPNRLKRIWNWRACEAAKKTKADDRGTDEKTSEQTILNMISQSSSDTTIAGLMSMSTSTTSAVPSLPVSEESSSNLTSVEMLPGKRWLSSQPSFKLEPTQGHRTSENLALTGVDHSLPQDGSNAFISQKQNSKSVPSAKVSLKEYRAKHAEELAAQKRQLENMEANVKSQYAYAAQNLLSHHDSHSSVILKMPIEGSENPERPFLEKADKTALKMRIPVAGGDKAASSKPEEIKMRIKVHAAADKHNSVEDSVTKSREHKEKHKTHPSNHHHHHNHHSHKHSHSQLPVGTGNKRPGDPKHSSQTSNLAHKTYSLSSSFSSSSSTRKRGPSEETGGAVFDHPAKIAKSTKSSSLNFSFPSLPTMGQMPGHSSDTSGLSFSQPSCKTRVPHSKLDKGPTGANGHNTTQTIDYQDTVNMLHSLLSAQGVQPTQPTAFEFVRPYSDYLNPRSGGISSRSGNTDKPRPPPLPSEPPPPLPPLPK
In short: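 Enzyme activity was measured by ADP-Glo luminescence following 60 min turnover of CDK tide peptide at room temperature. Compounds spanned ten 4-fold dilutions from 10 μM final, with 0.5% DMSO.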

CDK1/CycE1 = CDK1/CycE1 (Homo sapiens, UniProt P06493); experiment: ADP-Glo kinase assay on CDK enzymatic activity, CDK1/CycE1; conditions: ADP-Glo; 10 concentrations from 10 μM, 4-fold; 60 min room temperature; read-out: CDK1/CycE1/nM (IC50)
CDK1/CycE1, sequence (P06493 whole entry, species assumed): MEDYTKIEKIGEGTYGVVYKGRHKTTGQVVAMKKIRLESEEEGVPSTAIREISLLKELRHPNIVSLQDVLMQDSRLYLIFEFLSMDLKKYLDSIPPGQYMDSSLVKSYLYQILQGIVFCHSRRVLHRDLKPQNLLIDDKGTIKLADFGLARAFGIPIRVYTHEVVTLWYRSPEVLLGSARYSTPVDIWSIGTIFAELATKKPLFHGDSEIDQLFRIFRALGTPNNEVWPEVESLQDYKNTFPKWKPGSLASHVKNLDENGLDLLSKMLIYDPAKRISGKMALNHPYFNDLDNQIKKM
CDK1/CycE1, sequence (P24864 whole entry partner, species assumed): as the sequence (P24864 whole entry partner, species assumed) above
Method: as §1, §3, §4, §5, §6, §7, §8

CDK5/p25NCK, sequence (Q00535 whole entry, species assumed): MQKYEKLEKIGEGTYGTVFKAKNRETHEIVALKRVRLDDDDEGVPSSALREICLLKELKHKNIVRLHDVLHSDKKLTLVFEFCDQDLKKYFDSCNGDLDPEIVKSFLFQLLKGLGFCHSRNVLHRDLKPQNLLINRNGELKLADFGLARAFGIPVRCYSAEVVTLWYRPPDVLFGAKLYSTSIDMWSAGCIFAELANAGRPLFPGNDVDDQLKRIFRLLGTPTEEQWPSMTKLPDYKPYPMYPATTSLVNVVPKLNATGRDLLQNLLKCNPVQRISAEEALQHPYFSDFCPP
CDK5/p25NCK, sequence (Q15078 99-307 partner limits assumed, species assumed): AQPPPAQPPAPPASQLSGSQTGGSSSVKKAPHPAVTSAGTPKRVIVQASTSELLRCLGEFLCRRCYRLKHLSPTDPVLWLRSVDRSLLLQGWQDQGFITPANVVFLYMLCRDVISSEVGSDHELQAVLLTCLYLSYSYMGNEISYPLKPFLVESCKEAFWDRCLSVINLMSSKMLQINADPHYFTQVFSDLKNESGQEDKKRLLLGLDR

Row | IC50 (CDK5/p25NCK) [nM] | IC50 (CDK2/CycA2) [nM] | IC50 (CDK3/CycE1) [nM] | IC50 (CDK9/CycT1) [nM] | IC50 (CDK1/CycE1) [nM] | SMILES
1 | 168 | 337 | 398 | 4 | 521 | FC(F)c1cc2cnc(N[C@H]3CCCNC3)cc2c(O[C@@H]2CCOC2)n1 [Compound 202, 7-(difluoromethyl)-N—((S)-piperidin-3-yl)-5-(((R)-tetrahydrofuran-3-yl)oxy)-2,6-naphthyridin-3-amine]
2 | 187 | 284 | 91 | 11 | – | CC(=O)N[C@@H]1CCC[C@H](C(=O)Nc2cc3c(NC(C)C)nc(CCO)cc3cn2)C1 [Compound 14, (1S,3R)-3-acetamido-N-(7-(2-hydroxyethyl)-5-(isopropylamino)-2,6-naphthyridin-3-yl)cyclohexane-1-carboxamide]
3 | 63 | 29 | 92 | 2 | 114 | CC(C)Nc1nc(C#N)cc2cnc(N[C@H]3CCCOC3)nc12 [Compound 116, (S)-8-(isopropylamino)-2-((tetrahydro-2H-pyran-3-yl)amino)pyrido[3,4-d]pyrimidine-6-carbonitrile]
4 | 17 | 6 | 8 | 1 | 3 | CC(C)Nc1nc(C#N)cc2cnc(N[C@H]3CC[C@H](O)C3)nc12 [Compound 122, 2-(((1S,3S)-3-hydroxycyclopentyl)amino)-8-(isopropylamino)pyrido[3,4-d]pyrimidine-6-carbonitrile]
5 | 1530 | 388 | 629 | 6 | 678 | CC(C)Nc1nc(C#N)cc2cnc(N[C@H]3CCCNCC3)nc12 [Compound 131, (S)-2-(azepan-4-ylamino)-8-(isopropylamino)pyrido[3,4-d]pyrimidine-6-carbonitrile]
6 | 783 | 669 | 179 | 8 | – | CC(=O)N[C@@H]1CCC[C@H](C(=O)Nc2cc3c(NC(C)C)nc(C#N)cc3cn2)C1 [Compound 2, (1S,3R)-3-acetamido-N-(7-cyano-5-(isopropylamino)-2,6-naphthyridin-3-yl)cyclohexane-1-carboxamide]
7 | 1460 | 450 | 281 | 2 | 608 | N#Cc1cc2cnc(N[C@H]3CCCNC3)cc2c(N[C@@H]2CCOC2)n1 [Compound 150, 7-(((S)-piperidin-3-yl)amino)-1-(((R)-tetrahydrofuran-3-yl)amino)-2,6-naphthyridine-3-carbonitrile]
8 | 447 | 74 | 32 | 2 | 25 | CC(C)Nc1nc(C#N)cc2cnc(NC3CC4(CNC4)C3)nc12 [Compound 130, 2-((2-azaspiro[3.3]heptan-6-yl)amino)-8-(isopropylamino)pyrido[3,4-d]pyrimidine-6-carbonitrile]
9 | 435 | 489 | 1480 | 3 | 234 | N#Cc1cc2cnc(N[C@H]3CCCNC3)cc2c(NC2CC2)n1 [Compound 175, (S)-1-(cyclopropylamino)-7-(piperidin-3-ylamino)-2,6-naphthyridine-3-carbonitrile]
10 | 195 | 146 | 28 | 2 | 90 | N#Cc1cc2cnc(N[C@H]3CCCNC3)cc2c(NC2CCC2)n1 [Compound 144, (S)-1-(cyclobutylamino)-7-(piperidin-3-ylamino)-2,6-naphthyridine-3-carbonitrile]
11 | 36 | 14 | 35 | 1 | – | CC(C)(C)Nc1nc(C#N)cc2cnc(N[C@H]3CC[C@H](O)C3)cc12 [Compound 35, 1-(tert-butylamino)-7-(((1S,3S)-3hydroxycyclopentyl)amino)-2,6-naphthyridine-3-carbonitrile]
12 | 2200 | 888 | 550 | 10 | – | N#Cc1cc2cnc(N[C@H]3CCCNC3)cc2c(N[C@H](CO)c2ccccc2)n1 [Compound 104, 1-(((S)-2-hydroxy-1-phenylethyl)amino)-7-(((S)-piperidin-3-yl)amino)-2,6-naphthyridine-3-carbonitrile]
13 | 142 | 73 | 88 | 1 | – | CC(C)Oc1nc(C#N)cc2cnc(N[C@H]3CC[C@H](N)C3)cc12 [Compound 51, 7-(((1S,3S)-3-aminocyclopentyl)amino)-1-isopropoxy-2,6-naphthyridine-3-carbonitrile]
14 | 10 | 15 | 14 | 1 | – | CC(C)Nc1nc(C(F)F)cc2cnc(N[C@H]3CCCNC3)cc12 [Compound 54, (S)-3-(difluoromethyl)-N^1-isopropyl-N^7-(piperidin-3-yl)-2,6-naphthyridine-1,7-diamine]
15 | 119 | 73 | 208 | 2 | – | CC1(Nc2nc(C#N)cc3cnc(N[C@H]4CC[C@H](N)C4)cc23)CC1 [Compound 50, 7-(((1S,3S)-3-aminocyclopentyl)amino)-1-((1-methylcyclopropyl)amino)-2,6-naphthyridine-3-carbonitrile]
16 | 23 | 13 | 75 | 2 | – | CC(C)Nc1nc(C#N)cc2cnc(N[C@@H]3CNCC(F)(F)C3)cc12 [Compound 43, (S)-7-((5,5-difluoropiperidin-3-yl)amino)-1-(isopropylamino)-2,6-naphthyridine-3-carbonitrile]
17 | 461 | 514 | 1210 | 4 | – | CC(C)Nc1nc(C#N)cc2cnc(N[C@H]3CC[C@@H](N)C3)cc12 [Compound 29, 7-(((1S,3R)-3-aminocyclopentyl)amino)-1-(isopropylamino)-2,6-naphthyridine-3-carbonitrile]
18 | 93 | 57 | 105 | 2 | – | N#Cc1cc2cnc(N[C@H]3CC[C@H](N)C3)cc2c(NC2CCCC2)n1 [Compound 49, 7-(((1S,3S)-3-aminocyclopentyl)amino)-1-(cyclopentylamino)-2,6-naphthyridine-3-carbonitrile]
19 | 238 | 128 | 137 | 2 | – | CC(C)(C)Nc1nc(C#N)cc2cnc(N[C@H]3CC[C@H](N)C3)cc12 [Compound 34, 7-(((1S,3S)-3-aminocyclopentyl)amino)-1-(tert-butylamino)-2,6-naphthyridine-3-carbonitrile]
20 | 266 | 199 | 477 | 2 | – | CCC(CC)Nc1nc(C#N)cc2cnc(N[C@H]3CC[C@H](N)C3)cc12 [Compound 48, 7-(((1S,3S)-3-aminocyclopentyl)amino)-1-(pentan-3-ylamino)-2,6-naphthyridine-3-carbonitrile]
21 | 5340 | 3340 | 862 | 26 | – | CC(=O)N1CCC[C@H](C(=O)Nc2cc3c(NC(C)C)nc(C#N)cc3cn2)C1 [Compound 24, (S)-1-acetyl-N-(7-cyano-5-(isopropylamino)-2,6-naphthyridin-3-yl)piperidine-3-carboxamide]
22 | 3630 | 1170 | 288 | 2 | – | CC(C)Nc1nc(C#N)cc2cnc(N[C@@H]3CN4CCC3CC4)cc12 [Compound 44, (S)-1-(isopropylamino)-7-(quinuclidin-3-ylamino)-2,6-naphthyridine-3-carbonitrile]
23 | 527 | 402 | 41 | 13 | – | C#Cc1cc2cnc(NC(=O)[C@H]3CCC[C@@H](NC(C)=O)C3)cc2c(NC(C)C)n1 [Compound 13, (1S,3R)-3-acetamido-N-(7-ethynyl-5-(isopropylamino)-2,6-naphthyridin-3-yl)cyclohexane-1-carboxamide]
